Here are results for 3 compounds from paper PMC4457528, “Identification of Novel Small Molecule Inhibitors of Oncogenic RET Kinase” (PLoS ONE, 2015).

Experiment in all cases: KinomeScan kinase panel, single concentration 10 µM
Common to all, as to assay type: binding

Assay [1] deals with T1, KinomeScan kinase panel (Homo sapiens, UniProt O00238).
T1 construct: purchased DiscoveRx (KinomeScan)
Conditions: BMPR1B, 10 µM; read-out: score (%).

Assay [2] has as its target T2, KinomeScan kinase panel (Homo sapiens, UniProt P00533, DEL752-759).
T2 construct: purchased DiscoveRx (KinomeScan)

The target in assay [3] is T3, KinomeScan kinase panel (Homo sapiens, UniProt P15735).
T3 construct: purchased DiscoveRx (KinomeScan)
T3 sequence (P15735 1-406): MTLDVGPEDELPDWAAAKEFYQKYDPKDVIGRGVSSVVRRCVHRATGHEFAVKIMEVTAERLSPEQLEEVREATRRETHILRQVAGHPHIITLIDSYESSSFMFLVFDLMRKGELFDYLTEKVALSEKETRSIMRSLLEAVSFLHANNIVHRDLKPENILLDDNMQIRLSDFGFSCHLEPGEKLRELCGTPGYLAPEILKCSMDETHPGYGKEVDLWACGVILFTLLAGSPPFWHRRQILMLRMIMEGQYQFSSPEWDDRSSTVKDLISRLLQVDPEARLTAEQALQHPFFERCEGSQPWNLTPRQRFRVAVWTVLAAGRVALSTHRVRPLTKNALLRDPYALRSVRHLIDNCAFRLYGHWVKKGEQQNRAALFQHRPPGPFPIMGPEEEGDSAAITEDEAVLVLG
The note with it: PHKG2, 10 µM; read-out: score (%).

Assay [4] has as its target T4, KinomeScan kinase panel (Homo sapiens, UniProt P36894).
T4 construct: purchased DiscoveRx (KinomeScan)
Conditions: BMPR1A, 10 µM; read-out: score (%).

Assay [5] deals with T5, KinomeScan kinase panel (Homo sapiens, UniProt P42680).
T5 construct: purchased DiscoveRx (KinomeScan)
T5 sequence (P42680 1-631): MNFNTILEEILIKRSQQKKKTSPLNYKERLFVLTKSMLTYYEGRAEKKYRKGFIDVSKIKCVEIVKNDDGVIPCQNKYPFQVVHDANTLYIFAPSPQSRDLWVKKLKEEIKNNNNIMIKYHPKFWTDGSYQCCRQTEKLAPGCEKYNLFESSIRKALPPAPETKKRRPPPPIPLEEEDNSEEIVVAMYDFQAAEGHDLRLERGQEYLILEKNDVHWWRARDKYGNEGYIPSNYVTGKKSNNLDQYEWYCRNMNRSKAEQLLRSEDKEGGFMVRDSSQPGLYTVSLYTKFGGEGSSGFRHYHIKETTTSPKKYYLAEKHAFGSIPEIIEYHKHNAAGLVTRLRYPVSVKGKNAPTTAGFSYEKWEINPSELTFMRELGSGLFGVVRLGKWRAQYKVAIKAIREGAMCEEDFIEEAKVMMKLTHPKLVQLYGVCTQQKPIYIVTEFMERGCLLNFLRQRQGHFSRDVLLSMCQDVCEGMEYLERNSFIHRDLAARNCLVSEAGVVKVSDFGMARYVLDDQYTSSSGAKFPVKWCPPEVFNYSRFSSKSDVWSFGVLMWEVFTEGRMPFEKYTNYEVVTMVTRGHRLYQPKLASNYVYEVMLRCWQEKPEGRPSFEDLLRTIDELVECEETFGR
The note with it: 10 µM, read-out: score (%).

Assay [6] addresses T6, KinomeScan kinase panel (Homo sapiens, UniProt P78368).
T6 construct: purchased DiscoveRx (KinomeScan)
The note with it: CSNK1G2, 10 µM.

Assay [7] has as its target T7, KinomeScan kinase panel (Homo sapiens, UniProt Q13546).
T7 construct: purchased DiscoveRx (KinomeScan)
T7 sequence (Q13546 1-671): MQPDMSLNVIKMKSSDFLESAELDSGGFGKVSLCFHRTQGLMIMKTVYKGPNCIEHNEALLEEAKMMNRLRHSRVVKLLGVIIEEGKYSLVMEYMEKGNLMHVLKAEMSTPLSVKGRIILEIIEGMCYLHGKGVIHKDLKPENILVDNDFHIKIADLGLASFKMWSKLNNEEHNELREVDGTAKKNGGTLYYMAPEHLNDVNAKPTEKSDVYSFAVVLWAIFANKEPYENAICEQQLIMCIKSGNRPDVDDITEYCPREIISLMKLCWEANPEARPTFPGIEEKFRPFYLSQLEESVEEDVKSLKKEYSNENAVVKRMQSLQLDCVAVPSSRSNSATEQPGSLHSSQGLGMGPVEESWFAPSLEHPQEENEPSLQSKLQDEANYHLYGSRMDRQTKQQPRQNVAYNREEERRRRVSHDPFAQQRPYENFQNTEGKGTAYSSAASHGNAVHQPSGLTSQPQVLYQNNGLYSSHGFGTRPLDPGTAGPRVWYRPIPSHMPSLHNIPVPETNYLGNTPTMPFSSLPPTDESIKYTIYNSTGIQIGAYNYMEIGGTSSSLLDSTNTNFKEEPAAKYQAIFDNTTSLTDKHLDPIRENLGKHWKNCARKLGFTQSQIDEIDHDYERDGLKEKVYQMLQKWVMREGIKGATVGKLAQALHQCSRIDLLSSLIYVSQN
The note with it: read-out: score (%).

Assay [8] concerns the target T8, KinomeScan kinase panel (Homo sapiens, UniProt Q13705).
T8 construct: purchased DiscoveRx (KinomeScan)
Conditions: ACVR2B, 10 µM.

Assay [9] addresses T9, KinomeScan kinase panel (Homo sapiens, UniProt Q15303).
T9 construct: purchased DiscoveRx (KinomeScan)
Conditions: ERBB4, 10 µM; read-out: score (%).

Assay [10] concerns the target T10, KinomeScan kinase panel (Homo sapiens, UniProt Q2M2I8).
T10 construct: purchased DiscoveRx (KinomeScan)
Conditions: AAK1, 10 µM; read-out: score (%).

The target of assay [11] is T11, KinomeScan kinase panel (Homo sapiens, UniProt Q8NEV4).
T11 construct: purchased DiscoveRx (KinomeScan)
The note with it: MYO3A, 10 µM; read-out: score (%).

In assay [12] the target is T12, KinomeScan kinase panel (Homo sapiens, UniProt Q9BVS4).
T12 construct: purchased DiscoveRx (KinomeScan)
The note with it: read-out: score (%).

Assay [13] addresses T13, KinomeScan kinase panel (Homo sapiens, UniProt Q9UIK4).
T13 construct: purchased DiscoveRx (KinomeScan)
The note with it: DAPK2, 10 µM; read-out: score (%).

The target of assay [14] is T14, KinomeScan kinase panel (Homo sapiens, UniProt Q9UQB9).
T14 construct: purchased DiscoveRx (KinomeScan)
T14 sequence (Q9UQB9 1-309): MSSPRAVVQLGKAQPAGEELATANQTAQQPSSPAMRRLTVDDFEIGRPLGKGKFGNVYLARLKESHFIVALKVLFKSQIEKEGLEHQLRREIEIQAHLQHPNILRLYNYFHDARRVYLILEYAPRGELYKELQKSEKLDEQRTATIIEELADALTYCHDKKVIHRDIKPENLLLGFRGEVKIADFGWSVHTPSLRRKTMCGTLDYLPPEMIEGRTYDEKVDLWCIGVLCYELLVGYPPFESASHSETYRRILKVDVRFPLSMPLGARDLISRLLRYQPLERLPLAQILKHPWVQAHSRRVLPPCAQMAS
Conditions: AURKC, 10 µM; read-out: score (%).

Where two headings read alike, the source gives them in different places.

T12 sequence (Q9BVS4 whole entry): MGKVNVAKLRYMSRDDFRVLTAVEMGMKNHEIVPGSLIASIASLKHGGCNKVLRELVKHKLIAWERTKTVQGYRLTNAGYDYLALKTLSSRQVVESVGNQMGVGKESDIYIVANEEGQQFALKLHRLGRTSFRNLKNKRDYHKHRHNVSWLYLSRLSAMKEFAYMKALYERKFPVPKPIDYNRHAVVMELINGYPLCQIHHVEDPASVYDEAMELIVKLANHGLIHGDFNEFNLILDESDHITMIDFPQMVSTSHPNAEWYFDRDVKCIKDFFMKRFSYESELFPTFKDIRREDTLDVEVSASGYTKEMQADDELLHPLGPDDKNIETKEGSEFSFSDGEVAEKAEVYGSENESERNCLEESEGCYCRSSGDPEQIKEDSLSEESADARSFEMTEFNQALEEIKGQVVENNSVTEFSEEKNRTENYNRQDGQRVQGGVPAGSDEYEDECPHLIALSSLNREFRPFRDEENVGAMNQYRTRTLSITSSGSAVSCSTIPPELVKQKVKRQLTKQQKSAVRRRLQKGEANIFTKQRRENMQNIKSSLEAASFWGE
T2 sequence (P00533 with tags, fused parts or gaps DEL752-759): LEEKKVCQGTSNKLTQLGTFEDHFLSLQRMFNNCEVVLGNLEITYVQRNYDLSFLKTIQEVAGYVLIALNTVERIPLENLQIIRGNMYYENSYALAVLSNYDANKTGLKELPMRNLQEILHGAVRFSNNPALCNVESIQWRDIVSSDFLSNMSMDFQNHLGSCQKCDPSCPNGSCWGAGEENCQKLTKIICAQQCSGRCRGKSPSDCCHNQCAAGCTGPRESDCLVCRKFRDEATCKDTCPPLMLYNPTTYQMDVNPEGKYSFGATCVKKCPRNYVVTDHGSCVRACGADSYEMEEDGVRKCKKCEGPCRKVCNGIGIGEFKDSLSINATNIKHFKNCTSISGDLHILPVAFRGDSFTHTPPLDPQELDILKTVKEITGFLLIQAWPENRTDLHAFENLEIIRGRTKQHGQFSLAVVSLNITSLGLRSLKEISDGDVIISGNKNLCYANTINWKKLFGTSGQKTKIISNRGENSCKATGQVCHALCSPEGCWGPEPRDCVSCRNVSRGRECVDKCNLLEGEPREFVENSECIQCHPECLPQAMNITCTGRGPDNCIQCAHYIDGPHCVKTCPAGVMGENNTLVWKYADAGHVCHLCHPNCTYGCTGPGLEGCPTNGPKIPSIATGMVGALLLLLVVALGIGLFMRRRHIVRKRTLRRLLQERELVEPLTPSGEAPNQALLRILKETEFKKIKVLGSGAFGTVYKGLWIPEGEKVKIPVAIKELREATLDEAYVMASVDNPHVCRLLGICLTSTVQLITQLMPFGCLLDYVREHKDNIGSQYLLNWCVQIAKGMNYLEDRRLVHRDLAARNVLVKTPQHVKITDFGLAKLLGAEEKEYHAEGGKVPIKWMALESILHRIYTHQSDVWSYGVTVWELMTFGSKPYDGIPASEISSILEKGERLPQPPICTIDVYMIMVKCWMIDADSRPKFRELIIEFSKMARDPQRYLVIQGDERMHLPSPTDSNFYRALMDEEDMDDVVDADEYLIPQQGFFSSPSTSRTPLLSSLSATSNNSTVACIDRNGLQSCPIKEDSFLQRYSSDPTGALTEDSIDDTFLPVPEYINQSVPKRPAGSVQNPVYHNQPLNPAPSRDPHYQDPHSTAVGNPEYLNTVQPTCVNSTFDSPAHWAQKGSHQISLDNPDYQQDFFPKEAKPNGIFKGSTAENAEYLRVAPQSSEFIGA
T11 sequence (Q8NEV4 whole entry): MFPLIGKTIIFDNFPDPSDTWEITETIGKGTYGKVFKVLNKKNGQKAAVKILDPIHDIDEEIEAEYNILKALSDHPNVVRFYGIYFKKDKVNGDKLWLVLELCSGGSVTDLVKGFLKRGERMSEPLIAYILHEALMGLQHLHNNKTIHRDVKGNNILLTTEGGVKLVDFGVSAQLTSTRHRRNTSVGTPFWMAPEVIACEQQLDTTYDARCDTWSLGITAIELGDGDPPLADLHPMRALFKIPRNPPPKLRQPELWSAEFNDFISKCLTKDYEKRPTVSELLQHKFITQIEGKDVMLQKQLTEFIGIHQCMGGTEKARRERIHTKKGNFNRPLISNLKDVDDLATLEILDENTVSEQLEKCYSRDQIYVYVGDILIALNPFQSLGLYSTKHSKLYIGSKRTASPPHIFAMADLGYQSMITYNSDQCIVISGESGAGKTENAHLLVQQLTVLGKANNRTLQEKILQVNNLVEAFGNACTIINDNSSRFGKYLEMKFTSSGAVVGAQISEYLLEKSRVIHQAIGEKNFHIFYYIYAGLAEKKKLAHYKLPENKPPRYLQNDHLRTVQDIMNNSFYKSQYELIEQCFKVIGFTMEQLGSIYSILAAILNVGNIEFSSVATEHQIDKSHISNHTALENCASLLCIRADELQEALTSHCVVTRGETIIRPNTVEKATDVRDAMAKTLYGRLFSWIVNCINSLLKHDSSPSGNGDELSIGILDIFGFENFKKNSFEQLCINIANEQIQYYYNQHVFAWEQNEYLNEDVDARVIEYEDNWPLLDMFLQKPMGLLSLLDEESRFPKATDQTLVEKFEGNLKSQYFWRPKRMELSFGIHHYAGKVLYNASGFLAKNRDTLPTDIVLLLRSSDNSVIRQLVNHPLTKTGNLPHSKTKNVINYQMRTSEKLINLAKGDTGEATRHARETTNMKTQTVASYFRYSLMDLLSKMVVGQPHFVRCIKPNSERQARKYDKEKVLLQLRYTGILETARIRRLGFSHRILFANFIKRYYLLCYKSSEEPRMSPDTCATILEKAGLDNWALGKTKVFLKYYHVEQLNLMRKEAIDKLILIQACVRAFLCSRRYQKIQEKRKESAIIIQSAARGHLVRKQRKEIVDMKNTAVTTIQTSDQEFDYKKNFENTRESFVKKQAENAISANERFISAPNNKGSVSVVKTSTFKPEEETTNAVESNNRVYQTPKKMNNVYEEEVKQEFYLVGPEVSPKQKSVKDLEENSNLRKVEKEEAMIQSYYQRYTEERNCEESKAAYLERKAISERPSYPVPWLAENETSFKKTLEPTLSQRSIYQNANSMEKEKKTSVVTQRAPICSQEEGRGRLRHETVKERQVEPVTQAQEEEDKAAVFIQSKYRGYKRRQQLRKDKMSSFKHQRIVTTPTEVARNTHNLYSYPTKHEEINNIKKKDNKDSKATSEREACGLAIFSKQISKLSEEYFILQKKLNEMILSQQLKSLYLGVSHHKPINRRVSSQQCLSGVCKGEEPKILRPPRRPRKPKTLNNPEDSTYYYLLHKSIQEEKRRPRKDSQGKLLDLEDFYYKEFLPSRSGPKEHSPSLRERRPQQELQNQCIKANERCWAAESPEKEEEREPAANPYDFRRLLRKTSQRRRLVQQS
T10 sequence (Q2M2I8 whole entry): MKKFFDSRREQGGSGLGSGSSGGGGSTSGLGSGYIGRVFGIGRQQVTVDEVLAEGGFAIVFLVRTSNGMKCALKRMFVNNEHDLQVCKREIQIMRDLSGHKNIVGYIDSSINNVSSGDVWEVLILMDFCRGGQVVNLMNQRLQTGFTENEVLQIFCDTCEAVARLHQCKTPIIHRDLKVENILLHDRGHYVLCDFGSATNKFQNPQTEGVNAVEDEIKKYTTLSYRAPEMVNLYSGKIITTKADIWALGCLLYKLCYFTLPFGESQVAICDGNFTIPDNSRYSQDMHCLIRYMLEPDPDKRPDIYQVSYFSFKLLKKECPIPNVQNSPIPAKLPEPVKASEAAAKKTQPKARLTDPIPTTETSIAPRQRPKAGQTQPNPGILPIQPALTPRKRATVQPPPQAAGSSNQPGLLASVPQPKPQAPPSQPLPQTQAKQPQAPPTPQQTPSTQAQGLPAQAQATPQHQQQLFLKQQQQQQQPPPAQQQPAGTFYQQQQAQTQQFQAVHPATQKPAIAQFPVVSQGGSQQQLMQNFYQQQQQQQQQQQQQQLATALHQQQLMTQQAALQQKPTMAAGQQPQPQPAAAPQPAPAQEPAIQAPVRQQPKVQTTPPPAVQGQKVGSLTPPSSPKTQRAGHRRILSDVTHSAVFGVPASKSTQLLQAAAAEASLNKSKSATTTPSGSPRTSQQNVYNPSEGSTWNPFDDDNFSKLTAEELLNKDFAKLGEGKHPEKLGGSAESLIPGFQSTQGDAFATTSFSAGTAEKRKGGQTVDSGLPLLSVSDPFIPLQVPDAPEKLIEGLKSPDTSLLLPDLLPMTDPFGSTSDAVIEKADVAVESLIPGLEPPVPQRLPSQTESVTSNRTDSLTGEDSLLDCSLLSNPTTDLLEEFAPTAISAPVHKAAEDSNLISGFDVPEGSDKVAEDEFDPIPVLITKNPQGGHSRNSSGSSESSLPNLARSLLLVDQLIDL
T1 sequence (O00238 14-502): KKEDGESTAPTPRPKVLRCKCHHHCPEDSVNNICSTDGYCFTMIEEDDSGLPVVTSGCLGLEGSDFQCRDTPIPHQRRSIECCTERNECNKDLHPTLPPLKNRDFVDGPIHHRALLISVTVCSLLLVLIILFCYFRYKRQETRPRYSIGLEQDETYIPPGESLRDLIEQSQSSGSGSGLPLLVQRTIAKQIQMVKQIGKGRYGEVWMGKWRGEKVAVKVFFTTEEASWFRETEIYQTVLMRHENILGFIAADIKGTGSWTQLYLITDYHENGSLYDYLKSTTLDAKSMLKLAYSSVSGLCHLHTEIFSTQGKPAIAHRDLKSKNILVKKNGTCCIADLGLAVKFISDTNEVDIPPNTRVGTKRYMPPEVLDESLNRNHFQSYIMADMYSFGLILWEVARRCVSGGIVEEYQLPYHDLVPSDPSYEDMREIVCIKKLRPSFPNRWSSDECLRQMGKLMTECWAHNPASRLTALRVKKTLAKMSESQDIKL

In the case of `CCN1CCN(Cc2ccc(NC(=O)c3ccc(C)c(NC(=O)c4cncc(-c5cccs5)c4)c3)cc2C(F)(F)F)CC1` [ALW-II-41-27], the remaining binding at 10 µM in [1] was more than 30%; in assay [3], more than 30%; in assay [4] it was more than 30%; in [5] (kinase TEC), 1.7%; in assay [7] (RIPK1, 10 µM) it was 0.45%; in [9], 1.3%. The remaining binding at 10 µM in assay [10] was more than 30%; in assay [11], 17%; in [12] (RIOK2, 10 µM), more than 30%; in assay [13] it was more than 30%; in assay [14], more than 30%. Moreover, the results for the “score (%)” value in assay [2], in [6] and in [8] were 3%, 20% and “nb (Hits values higher than 30% were considered negative (no binding: nb))”, respectively.
Consider `CCN1CCN(Cc2ccc(NC(=O)c3ccc(C)c(/C=C/c4cnc5[nH]ccc5c4Cl)c3)cc2C(F)(F)F)CC1` [HG-6-63-01, (E)-3-(2-(4-chloro-1H-pyrrolo[2,3-b]pyridin-5-yl)vinyl)-N-(4-((4-ethylpiperazin-1-yl)methyl)-3-(trifluoromethyl)phenyl)-4-methylbenzamide], for which the remaining binding at 10 µM in [1] is more than 30%; in assay [3], more than 30%; in assay [4], more than 30%; in assay [5] (TEC) it was 1.2%; in assay [7] (RIPK1, 10 µM) it was 0.05%; in assay [9] it was 0.7%. Besides, the remaining binding at 10 µM is 27% in assay [10]; more than 30% in assay [11]; 33% in [12] (RIOK2, 10 µM); more than 30% in assay [13]; 0.65% in assay [14]. In addition, the “score (%)” value in assay [2] (EGFR(S752-I759del), 10 µM) is 0%; in [6], “nb (Hits values higher than 30% were considered negative (no binding: nb))”; in assay [8], “nb (Hits values higher than 30% were considered negative (no binding: nb))”.
As to `CCN1CCN(Cc2ccc(NC(=O)c3ccc(C)c(C#Cc4cccnc4)c3)cc2C(F)(F)F)CC1` [XMD15-44], the remaining binding at 10 µM in assay [1] was more than 30%; in assay [3], 92%; in [4] it was more than 30%; in assay [5] (kinase TEC), 3.7%; in assay [7] (kinase RIPK1, 10 µM), 0.05%; in assay [9], 1.8%. Further, the remaining binding at 10 µM in assay [10] is more than 30%; in assay [11], 3.2%; in [12] (kinase RIOK2, 10 µM), 0.5%; in assay [13] it was more than 30%; in assay [14], 13%. Also, the “score (%)” value in [2] (EGFR(S752-I759del), 10 µM) is recorded as 0.9%; in [6] it was “nb (Hits values higher than 30% were considered negative (no binding: nb))”; in assay [8] it was “nb (Hits values higher than 30% were considered negative (no binding: nb))”.
